Where two headings read alike, the source gives them in different places.
Columns and labels:
[1] = biological target: T1, Recombinant human microsomal MAO-A (Homo sapiens, UniProt P21397); assay: MAO-A activity assay (fluorimetric, Amplex Red, p-tyramine); assay type: biochemical; settings: for RA: MAO-A residual activity, active if lower than 60%; for MAO-A inhibition (experimental): MAO-A inhibitory assay
T1 construct: purchased Sigma Aldrich; host or cells: baculovirus infected insect cells (BTI-TN-5B1-4)
T1 sequence (P21397 1-527): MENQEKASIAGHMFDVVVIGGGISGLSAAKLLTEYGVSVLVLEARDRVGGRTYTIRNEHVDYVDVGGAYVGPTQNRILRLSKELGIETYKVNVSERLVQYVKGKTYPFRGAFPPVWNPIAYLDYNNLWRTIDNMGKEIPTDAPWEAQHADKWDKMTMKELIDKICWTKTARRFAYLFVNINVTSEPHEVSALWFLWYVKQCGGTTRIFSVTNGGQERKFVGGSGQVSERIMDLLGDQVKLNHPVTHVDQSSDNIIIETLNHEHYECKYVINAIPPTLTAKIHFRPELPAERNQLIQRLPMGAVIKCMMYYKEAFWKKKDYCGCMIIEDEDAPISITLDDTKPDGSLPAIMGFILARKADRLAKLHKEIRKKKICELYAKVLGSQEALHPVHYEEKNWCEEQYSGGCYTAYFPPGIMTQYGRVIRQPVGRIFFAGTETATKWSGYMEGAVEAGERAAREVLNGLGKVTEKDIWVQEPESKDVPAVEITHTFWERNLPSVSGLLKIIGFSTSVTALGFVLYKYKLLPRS
Protocol: The effects of the test compounds on MAO-A were investigated using a fluorimetric assay, following a previously described methodology. The inhibitory activity of the compounds was evaluated by their effects on the production of hydrogen peroxide (H2O2) from p-tyramine. The production of H2O2 was detected using Amplex Red reagent in the presence of horseradish peroxidase, where a highly sensitive fluorescent product, resorufin, is produced at stoichiometric amounts. Recombinant human microsomal MAO-A enzyme expressed in baculovirus infected insect cells (BTI-TN-5B1-4), horse-radish peroxidase (type II, lyophilized powder), and p-tyramine hydrochloride were obtained from Sigma Aldrich. 10-Acetyl-3,7-dihydroxyphenoxazine (Amplex Red reagent) was synthesized as described in the literature.
Briefly, 100 µL 50 mM sodium phosphate buffer (pH 7.4, 0.05% Triton X-114) containing the compounds and MAO-A were incubated for 30 min at 37 °C in a flat-bottomed black 96-well microplate, and placed in a dark microplate reader chamber. After the pre-incubation, the reaction was started by adding the final concentrations of 200 µM Amplex Red reagent, 2 U/mL horseradish peroxidase, and 1 mM p-tyramine (final volume, 200 µL). The production of resorufin was quantified based on the fluorescence generated (λex = 530 nm, λem = 590 nm) at 37 °C over a period of 30 min, during which time the fluorescence increased linearly. For control experiments, DMSO was used instead of the appropriate dilutions of the compounds in DMSO. To determine the blank value (b), phosphate-buffered solution replaced the enzyme solution. The initial velocities were calculated from the trends obtained, with each measurement carried out in duplicate. The specific fluorescence emission to obtain the final result was calculated after subtraction of the blank activity (b).

[2] = biological target: T2, MurA (Escherichia coli, UniProt P0A749); settings: cited from earlier work; for MurA RA (%): residual activity at 100 μM, single point; for experimental activity class against MurA: < 60% residual activity at 100 μM considered active
[3] = biological target: T3, CatB (Homo sapiens, UniProt P07858); design: method as in PMID 30321804; settings: cited from earlier work; for CatB RA (%): residual activity at 100 μM, single point; for experimental activity class against CatB: < 60% residual activity at 100 μM considered active
[4] = biological target: T2, MurA; assay: biochemical; settings: read-out: RA
Protocol: (§1) These fragments were measured in single point enzyme activity assays at 100 μM concentration against MurA and CatB.

[5] = biological target: T3, CatB; assay: CatB single point enzyme activity assay (residual activity); settings: read-out: RA
Protocol: as §1

[6] = Kinetic measurement of adduct formation with L-glutathione (GSH) by HPLC–MS; assay type: physicochemical; design: unit not given here
Protocol: Electrophilic fragments tested against MurA, CatB and MAO-A (25–53, structures shown in Supporting Figure S2 and SMILES provided in Supporting Table S1) represent eight different warhead chemotypes reacting via two reaction mechanisms: Michael-type nucleophilic addition and nucleophilic substitution. The intrinsic thiol reactivities (see Table 1) were determined by kinetic measurement of adduct formation with L-glutathione (GSH), a widely used cysteine surrogate, by an HPLC–MS methodology, as described in the referred study.

[7] = cited from earlier work
[8] = half-life of adduct formation with L-glutathione

T2 sequence (P0A749 whole entry): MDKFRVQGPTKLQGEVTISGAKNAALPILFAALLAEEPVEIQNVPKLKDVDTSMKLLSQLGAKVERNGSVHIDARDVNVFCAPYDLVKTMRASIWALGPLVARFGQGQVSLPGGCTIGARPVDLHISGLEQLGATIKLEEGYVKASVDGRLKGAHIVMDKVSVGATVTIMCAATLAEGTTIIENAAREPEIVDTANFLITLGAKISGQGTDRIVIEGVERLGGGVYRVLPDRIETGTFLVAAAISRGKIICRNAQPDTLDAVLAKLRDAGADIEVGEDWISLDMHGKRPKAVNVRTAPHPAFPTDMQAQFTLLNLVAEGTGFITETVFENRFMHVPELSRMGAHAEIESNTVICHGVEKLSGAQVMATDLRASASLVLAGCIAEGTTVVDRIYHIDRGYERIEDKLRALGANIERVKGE

Structure (SMILES): O=C(CCl)Nc1ccccc1 [Compound 48, O=C(CCl)Nc1ccccc1]
- RA [1]: 95%
- MurA RA (%) [2]: 110%
- CatB RA (%) [3]: 88%
- remaining activity at 100 µM [4]: 110%
- remaining activity at 100 µM [5]: 88%

Structure (SMILES): C=CC(=O)Nc1ccccc1 [Compound 30, C=CC(=O)Nc1ccccc1]
- RA [1]: 99%
- MurA RA (%) [2]: 78%
- CatB RA (%) [3]: 88%
- remaining activity at 100 µM [4]: 78%
- remaining activity at 100 µM [5]: 88%

Structure (SMILES): C=CC(=O)N(C)C [Compound 29, C=CC(=O)N(C)C]
- Reactivity, Experimental ln(k) vs GSH [6]: -5.211
- RA [1]: 75%
- MurA RA (%) [2]: 95%
- CatB RA (%) [3]: 75%
- GSH half-life [7, 8]: 127 h
- remaining activity at 100 µM [4]: 95%
- remaining activity at 100 µM [5]: 75%

Structure (SMILES): O=C1C=CC(=O)N1Cc1ccccc1 [Compound 39, O=C1C=CC(=O)N1Cc1ccccc1]
- Reactivity, Experimental ln(k) vs GSH [6]: 1.936
- MAO-A inhibition (experimental) [1]: active
- RA [1]: 0%
- MurA RA (%) [2]: 2%
- CatB RA (%) [3]: 87%
- GSH half-life [7, 8]: < 0.1 h
- remaining activity at 100 µM [4]: 2%
- remaining activity at 100 µM [5]: 87%

Structure (SMILES): C=CS(=O)(=O)c1ccccc1 [Compound 34, C=CS(=O)(=O)c1ccccc1]
- RA [1]: 52%
- MurA RA (%) [2]: 12%
- CatB RA (%) [3]: 87%
- lnk ([7]; […]): 1.45
- remaining activity at 100 µM [4]: 12%
- remaining activity at 100 µM [5]: 87%

Structure (SMILES): CC(C)(C)OC(=O)N1CC=CC1=O [Compound 42, CC(C)(C)OC(=O)N1CC=CC1=O]
- Reactivity, Experimental ln(k) vs GSH [6]: -5.449
- RA [1]: 47%
- MurA RA (%) [2]: 92%
- CatB RA (%) [3]: 85%
- GSH half-life [7, 8]: 161 h
- remaining activity at 100 µM [4]: 92%
- remaining activity at 100 µM [5]: 85%

Structure (SMILES): CC(Br)C(=O)Nc1cc(C(F)(F)F)cc(C(F)(F)F)c1 (stereo not drawn) [Compound 50, CC(Br)C(=O)Nc1cc(C(F)(F)F)cc(C(F)(F)F)c1]
- Reactivity, Experimental ln(k) vs GSH [6]: -4.922
- RA [1]: 83%
- MurA RA (%) [2]: 35%
- CatB RA (%) [3]: 91%
- GSH half-life [7, 8]: 95.2 h
- remaining activity at 100 µM [4]: 35%
- remaining activity at 100 µM [5]: 91%

Structure (SMILES): O=C(CBr)c1ccccc1 [Compound 45, O=C(CBr)c1ccccc1]
- Reactivity, Experimental ln(k) vs GSH [6]: 1.936
- MAO-A inhibition (experimental) [1]: found to inhibit MAO-A activity
- RA [1]: 39%
- MurA RA (%) [2]: 2%
- CatB RA (%) [3]: 27%
- GSH half-life ([7]; buffer): < 0.1 h
- remaining activity at 100 µM [4]: 2%
- remaining activity at 100 µM [5]: 27%

Structure (SMILES): COc1ccccc1C(=O)CBr [Compound 46, COc1ccccc1C(=O)CBr]
- Reactivity, Experimental ln(k) vs GSH [6]: 1.936
- RA [1]: 39%
- experimental activity class against MurA [2]: experimental MurA actives
- MurA RA (%) [2]: 3%
- experimental activity class against CatB [3]: experimental actives
- CatB RA (%) [3]: 55%
- GSH half-life [7, 8]: < 0.1 h
- remaining activity at 100 µM [4]: 3%
- remaining activity at 100 µM [5]: 55%

Structure (SMILES): CCOC(=O)/C=C/c1ccccc1 [Compound 27, CCOC(=O)/C=C/c1ccccc1]
- Reactivity, Experimental ln(k) vs GSH [6]: -4.242
- RA [1]: 97%
- MurA RA (%) [2]: 92%
- CatB RA (%) [3]: 79%
- GSH half-life [7, 8]: 48.2 h
- remaining activity at 100 µM [4]: 92%
- remaining activity at 100 µM [5]: 79%

Structure (SMILES): O=C1C=CCO1 [Compound 43, O=C1C=CCO1]
- Reactivity, Experimental ln(k) vs GSH [6]: -5.634
- RA [1]: 99%
- MurA RA (%) [2]: 75%
- CatB RA (%) [3]: 99%
- GSH half-life [7, 8]: 194 h
- remaining activity at 100 µM [4]: 75%
- remaining activity at 100 µM [5]: 99%

Structure (SMILES): Cc1ccccc1NC(=O)CCl [Compound 47, Cc1ccccc1NC(=O)CCl]
- Reactivity, Experimental ln(k) vs GSH [6]: -6.153
- RA [1]: 78%
- MurA RA (%) [2]: 83%
- CatB RA (%) [3]: 86%
- GSH half-life [7, 8]: 326 h
- remaining activity at 100 µM [4]: 83%
- remaining activity at 100 µM [5]: 86%

Structure (SMILES): CCOC(=O)C#Cc1ccccc1 [Compound 36, CCOC(=O)C#Cc1ccccc1]
- Reactivity, Experimental ln(k) vs GSH [6]: -1.906
- RA [1]: 94%
- MurA RA (%) [2]: 75%
- CatB RA (%) [3]: 70%
- GSH half-life [7, 8]: 4.66 h
- remaining activity at 100 µM [4]: 75%
- remaining activity at 100 µM [5]: 70%

Structure (SMILES): CN1C(=O)C=CC1=O [Compound 38, CN1C(=O)C=CC1=O]
- Reactivity, Experimental ln(k) vs GSH [6]: 1.936
- RA [1]: 5%
- MurA RA (%) [2]: 1%
- CatB RA (%) [3]: 91%
- GSH half-life [7, 8]: < 0.1 h
- remaining activity at 100 µM [4]: 1%
- remaining activity at 100 µM [5]: 91%

Structure (SMILES): O=C1C=CC(=O)N1C1CCCCC1 [Compound 40, O=C1C=CC(=O)N1C1CCCCC1]
- Reactivity, Experimental ln(k) vs GSH [6]: 1.936
- RA [1]: 3%
- MurA RA (%) [2]: 1%
- CatB RA (%) [3]: 89%
- GSH half-life [7, 8]: < 0.1 h
- remaining activity at 100 µM [4]: 1%
- remaining activity at 100 µM [5]: 89%

Structure (SMILES): CC#CC(=O)OCC [Compound 37, CC#CC(=O)OCC]
- Reactivity, Experimental ln(k) vs GSH [6]: -3.194
- RA [1]: 84%
- MurA RA (%) [2]: 82%
- CatB RA (%) [3]: 84%
- GSH half-life [7, 8]: 16.9 h
- remaining activity at 100 µM [4]: 82%
- remaining activity at 100 µM [5]: 84%

Structure (SMILES): O=C1C=CC(=O)N1c1ccccc1 [Compound 41, O=C1C=CC(=O)N1c1ccccc1]
- Reactivity, Experimental ln(k) vs GSH [6]: 1.936
- RA [1]: 1%
- experimental activity class against MurA [2]: experimental MurA actives
- MurA RA (%) [2]: 1%
- CatB RA (%) [3]: 82%
- GSH half-life [7, 8]: < 0.1 h
- remaining activity at 100 µM [4]: 0.8%
- remaining activity at 100 µM [5]: 82%

Structure (SMILES): C/C=C/C(=O)OC [Compound 26, C/C=C/C(=O)OC]
- Reactivity, Experimental ln(k) vs GSH [6]: -3.401
- RA [1]: 68%
- MurA RA (%) [2]: 41%
- CatB RA (%) [3]: 97%
- GSH half-life [7, 8]: 20.8 h
- remaining activity at 100 µM [4]: 41%
- remaining activity at 100 µM [5]: 97%

Structure (SMILES): O=S(=O)(/C=C/c1ccccc1)c1ccccc1 [Compound 35, O=S(=O)(/C=C/c1ccccc1)c1ccccc1]
- Reactivity, Experimental ln(k) vs GSH [6]: -4.913
- RA [1]: 87%
- MurA RA (%) [2]: 82%
- CatB RA (%) [3]: 77%
- GSH half-life [7, 8]: 94.3 h
- remaining activity at 100 µM [4]: 82%
- remaining activity at 100 µM [5]: 77%

Structure (SMILES): O=C(CBr)c1ccc(-c2ccccc2)cc1 [Compound 44, O=C(CBr)c1ccc(-c2ccccc2)cc1]
- Reactivity, Experimental ln(k) vs GSH [6]: 1.936
- RA [1]: 14%
- MurA RA (%) [2]: 0%
- experimental activity class against CatB [3]: experimental actives
- CatB RA (%) [3]: 0%
- GSH half-life [7, 8]: < 0.1 h
- remaining activity at 100 µM [4]: 0.1%
- remaining activity at 100 µM [5]: 0.1%

Structure (SMILES): COc1cc(NC(=O)CCl)cc(OC)c1 [Compound 51, COc1cc(NC(=O)CCl)cc(OC)c1]
- Reactivity, Experimental ln(k) vs GSH [6]: -3.498
- RA [1]: 69%
- MurA RA (%) [2]: 61%
- CatB RA (%) [3]: 87%
- GSH half-life [7, 8]: 22.9 h
- remaining activity at 100 µM [4]: 61%
- remaining activity at 100 µM [5]: 87%

Structure (SMILES): COC(=O)/C=C/C(=O)OC [Compound 25, COC(=O)/C=C/C(=O)OC]
- RA [1]: 80%
- MurA RA (%) [2]: 50%
- CatB RA (%) [3]: 106%
- remaining activity at 100 µM [4]: 50%
- remaining activity at 100 µM [5]: 106%

— PMC7904743, “WIDOCK: a reactive docking protocol for virtual screening of covalent inhibitors” (Journal of Computer-Aided Molecular Design, 2021)
